One assay has as its target T1, Rhesus PDE2A3 (Macaca mulatta, UniProt B3VTJ2).
T1 construct: made in house; host or cells: AD293 cells, transient transfection, pcDNA3.3-TOPO; lysate supernatant used as enzyme
T1 sequence (B3VTJ2 1-941): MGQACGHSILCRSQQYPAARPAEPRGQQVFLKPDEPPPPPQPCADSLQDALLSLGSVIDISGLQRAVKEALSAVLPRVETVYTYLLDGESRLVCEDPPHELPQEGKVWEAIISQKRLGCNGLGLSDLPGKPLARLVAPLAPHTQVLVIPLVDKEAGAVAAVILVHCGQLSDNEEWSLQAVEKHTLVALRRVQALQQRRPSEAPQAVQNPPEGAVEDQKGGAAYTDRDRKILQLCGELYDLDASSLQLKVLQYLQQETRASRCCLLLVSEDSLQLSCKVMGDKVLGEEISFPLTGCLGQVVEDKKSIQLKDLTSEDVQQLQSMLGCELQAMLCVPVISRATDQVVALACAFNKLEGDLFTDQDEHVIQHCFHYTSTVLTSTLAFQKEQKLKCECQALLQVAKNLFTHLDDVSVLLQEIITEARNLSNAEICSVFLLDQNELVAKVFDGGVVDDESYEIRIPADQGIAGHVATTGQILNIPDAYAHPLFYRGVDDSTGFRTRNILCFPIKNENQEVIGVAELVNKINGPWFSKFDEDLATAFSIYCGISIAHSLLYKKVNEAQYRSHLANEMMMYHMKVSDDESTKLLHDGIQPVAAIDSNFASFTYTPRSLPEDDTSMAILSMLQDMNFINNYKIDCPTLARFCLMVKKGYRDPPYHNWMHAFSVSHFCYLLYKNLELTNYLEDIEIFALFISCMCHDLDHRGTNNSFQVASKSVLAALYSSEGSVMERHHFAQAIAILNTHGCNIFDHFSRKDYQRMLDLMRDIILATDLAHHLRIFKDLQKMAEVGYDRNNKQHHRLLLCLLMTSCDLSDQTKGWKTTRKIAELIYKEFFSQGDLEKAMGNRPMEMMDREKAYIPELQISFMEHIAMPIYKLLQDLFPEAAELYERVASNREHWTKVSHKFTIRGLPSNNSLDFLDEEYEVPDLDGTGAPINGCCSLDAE
In words: PDE2 fluorescence polarization (IMAP FP) inhibition assay, rhesus enzyme. In kind it is biochemical, rhesus macaque. Conditions: Lab A; read-out: Rhesus PDE2 Ki (nM) Lab A. Here is the method: The activity of the compounds in accordance with the present invention as PDE2 inhibitors may be readily determined using a fluorescence polarization (FP) methodology (Huang, W., et al., J. Biomol Screen, 2002, 7: 215).
In a typical experiment the PDE2 inhibitory activity of the compounds of the present invention was determined in accordance with the following experimental method. Rhesus PDE2A3 was amplified from rhesus macaque brain cDNA (Biochain Institute, Hayward, Calif.) using primers based on human PDE2A sequence (accession NM_002599.3) where the forward primer containing a Kozak consensus was 5′-[…]-3′ and the reverse primer was 5′-[…]-3′. Amplification with Easy-A High-Fidelity PCR cloning enzyme (Stratagene, La Jolla, Calif.) was 95° C. for 2 minutes followed by thirty three cycles of 95° C. for 40 seconds, 52° C. for 30 seconds, and 72° C. for 2 minutes 48 seconds. Final extension was 72° C. for 7 minutes. The PCR product was TA cloned into pcDNA3.3-TOPO (Invitrogen, Carlsbad, Calif.) according to standard protocol. A consensus sequence was developed from multiple clones and then deposited into GenBank (EU812167). AD293 cells (Stratagene, La Jolla, Calif.) with 70-80% confluency were transiently transfected with rhesus PDE2A3/pcDNA3.3-TOPO using Lipofectamine 2000 according to manufacturer specifications (Invitrogen, Carlsbad, Calif.). Cells were harvested 48 hours post-transfection and lysed by sonication (setting 3, 10×5 sec pulses) in a buffer containing 20 mM HEPES pH 7.4, 1 mM EDTA and Complete Protease Inhibitor Cocktail Tablets (Roche, Indianapolis, Ind.). Lysate was collected by centrifugation at 75,000×g for 20 minutes at 4° C. and supernatant utilized for evaluation of PDE2 activity. The fluorescence polarization assay for cyclic nucleotide phosphodiesterases was performed using an IMAP® FP kit supplied by Molecular Devices, Sunnyvale, Calif. (product # R8139). […] Assays were performed at room temperature in 384-well microtiter plates with an incubation volume of 20.2 μL. Solutions of test compounds were prepared in DMSO and serially diluted with DMSO to yield 8 μL of each of 10 solutions differing by 3-fold in concentration, at 32 serial dilutions per plate. […] 0% of inhibition is determined by using DMSO (1% final concentrations).
A Labcyte Echo 555 (Labcyte, Sunnyvale, Calif.) is used to dispense 200 nL from each well of the titration plate to the 384 well assay plate. Ten microliters of a solution of enzyme (1/2000 final dilution from aliquots; sufficient to produce 20% substrate conversion) was added to the assay plate. Next 10 uL of a separate solution of the substrate FAM-labeled cAMP (50 nM final concentration product # R7506 from Molecular Devices) and the activator cGMP (1 uM final concentration), prepared in the assay buffer (10 mM Tris HCl, pH 7.2, 10 mM MgCl2, 0.05% NaN3 0.01% Tween-20, and 1 mM DTT) was added to the assay plate and shaken to mix. The reaction is allowed to proceed at room temperature for 60 minutes. A binding solution is then made from the kit components, comprised of 80% Solution A, 20% Solution B and binding reagent at a volume of 1/600 the total binding solution. The enzymatic reaction is stopped by addition of 60 μl, of the binding solution to each well of the assay plates and the plates are sealed and shaken for 30 seconds. The plate was incubated at room temperature for at least one hour prior to determining the fluorescence polarization (FP). The parallel and perpendicular fluorescence of each well of the plate was measured using a Tecan Genios Pro plate reader (Tecan, Switzerland) or Perkin Elmer EnVision™ plate reader (Waltham, Mass.). Fluorescence polarization (mP) was calculated from the parallel (S) and perpendicular (P) fluorescence of each sample well and the analogous values for the median control well, containing only substrate (So and Po), using the following equation: Polarization (mP)=1000*(S/So−P/Po)/(S/So+P/Po).
On the technique in general: In fluorescence polarisation assays a small probe gives low polarisation when free and higher when bound to something large.
What is called Ki is a dissociation constant, usually derived from enzyme kinetics or from competition with a known ligand. On to `Cc1nc(-c2cnn(C(C)c3ccc(OC(F)F)cc3C)c2)cc(=O)[nH]1` (single isomer, unassigned) [Example 89, (R)- or (S)-6-(1-(1-(4-(difluoromethoxy)-2-methylphenyl)ethyl)-1H-pyrazol-4-yl)-2-methylpyrimidin-4(3H)-one], for which the Ki is 1840 nM.
Take `Cc1nc(-c2cnn(C(C)c3ccc(CC(F)(F)F)cc3F)c2)cc(=O)[nH]1` (single isomer, unassigned) [Example 96, (S)- or (R)-6-(1-(1-(2-fluoro-4-(2,2,2-trifluoroethyl)phenyl)ethyl)-1H-pyrazol-4-yl)-2-methylpyrimidin-4(3H)-one]: the Ki stood at 1260 nM.
`Cc1nc(-c2cnn(C(C)c3ccc(C4CC4)cc3C)c2)cc(=O)[nH]1` (single isomer, unassigned) [Example 93, (R)- or (S)-6-(1-(1-(4-cyclopropyl-2-methylphenyl)ethyl)-1H-pyrazol-4-yl)-2-methylpyrimidin-4(3H)-one]: the Ki is 706 nM.
Same read-out and setting: then `COCc1ccc(C(C)n2cc(-c3cc(=O)[nH]c(C)n3)cn2)c(Cl)c1` (single isomer, unassigned) [Example 103, (R)- or (S)-6-(1-(1-(2-chloro-4-(methoxymethyl)phenyl)ethyl)-1H-pyrazol-4-yl)-2-methylpyrimidin-4(3H)-one], with 106 nM; and `Cc1nc(-c2cnn(C(C)c3ccc(CC(F)(F)F)cc3F)c2)cc(=O)[nH]1` (single isomer, unassigned) [Example 95, (R)- or (S)-6-(1-(1-(2-fluoro-4-(2,2,2-trifluoroethyl)phenyl)ethyl)-1H-pyrazol-4-yl)-2-methylpyrimidin-4(3H)-one], with 1140 nM.
For the molecule `Cc1ccc(C(C)n2cc(-c3cc(=O)[nH]c(C)n3)cn2)c(Cl)c1` (single isomer, unassigned) [Example 149, (S)- or (R)-6-(1-(1-(2-chloro-4-methylphenyl)ethyl)-1H-pyrazol-4-yl)-2-methylpyrimidin-4(3H)-one], the Ki came out at 954 nM.
On the same count and under the same terms, then `CCc1ccc(C(C)n2cc(-c3cc(=O)[nH]c(C)n3)cn2)c(F)c1` (single isomer, unassigned) [Example 102, (S)- or (R)-6-(1-(1-(4-ethyl-2-fluorophenyl)ethyl)-1H-pyrazol-4-yl)-2-methylpyrimidin-4(3H)-one], with 212 nM; and `COCc1ccc(C(C)n2cc(-c3cc(=O)[nH]c(C)n3)cn2)c(F)c1` (single isomer, unassigned) [Example 97, (R)- or (S)-6-(1-(1-(2-fluoro-4-(methoxymethyl)phenyl)ethyl)-1H-pyrazol-4-yl)-2-methylpyrimidin-4(3H)-one], with 464 nM.

Still in this assay, the particulars now being: Lab B; read-out: Rhesus PDE2 Ki (nM) Lab B.
On to `Cc1nc(-n2cc(C(C)c3ccc4c(c3)OCC4(C)C)cn2)cc(=O)[nH]1` (stereo not shown) [Example 47, 6-(4-(1-(3,3-dimethyl-2,3-dihydrobenzofuran-6-yl)ethyl)-1H-pyrazol-1-yl)-2-methylpyrimidin-4(3H)-one], for which the Ki was found to be 1240 nM.
On the same count and under the same terms, the result for `Cc1nc(-c2ccnn2C(C)c2ccc(OC(F)(F)F)cc2)cc(=O)[nH]1` (stereo not shown) [Example 76, 2-methyl-6-(1-(1-(4-(trifluoromethoxy)phenyl)ethyl)-1H-pyrazol-5-yl)pyrimidin-4(3H)-one] reads 15900 nM; that for `Cc1nc(-n2cc(C(C)c3ccc(C(C)(C)C)cc3)cn2)cc(=O)[nH]1` (stereo not shown) [Example 45, 6-(4-(1-(4-(tert-butyl)phenyl)ethyl)-1H-pyrazol-1-yl)-2-methylpyrimidin-4(3H)-one], 411 nM; that for `Cc1nc(-n2cc(C(C)c3ccc4c(c3)CCOC4)cn2)cc(=O)[nH]1` (stereo not shown) [Example 42, 6-(4-(1-(isochroman-6-yl)ethyl)-1H-pyrazol-1-yl)-2-methylpyrimidin-4(3H)-one], 2620 nM.
Same read-out and setting: the result for `COC(=O)c1ccc(C(C)n2ccc(-c3cc(=O)[nH]c(C)n3)n2)cc1` (stereo not shown) [Example 162, methyl 4-(1-(3-(2-methyl-6-oxo-1,6-dihydropyrimidin-4-yl)-1H-pyrazol-1-yl)ethyl)benzoate] reads 29800 nM; that for `Cc1nc(-n2cc(C(C)c3ccc(C(F)(F)F)c(F)c3)cn2)cc(=O)[nH]1` (single isomer, unassigned) [Example 50, (R)- or (S)-6-(4-(1-(3-fluoro-4-(trifluoromethyl)phenyl)ethyl)-1H-pyrazol-1-yl)-2-methylpyrimidin-4(3H)-one], above 1000 nM.
Still for that read-out and setting: the result for `Cc1nc(-c2cnn(C(C)c3ccc(F)cc3)c2)cc(=O)[nH]1` (stereo not shown) [Example 152, 6-(1-(1-(4-fluorophenyl)ethyl)-1H-pyrazol-4-yl)-2-methylpyrimidin-4(3H)-one] reads 4130 nM; that for `Cc1nc(-n2cc(C(C)c3ccc4c(c3)COCC4)cn2)cc(=O)[nH]1` (stereo not shown) [Example 46, 6-(4-(1-(isochroman-7-yl)ethyl)-1H-pyrazol-1-yl)-2-methylpyrimidin-4(3H)-one], 2480 nM.
Regarding `Cc1nc(-c2cnn(C(C)c3ccc(OC(F)(F)F)cc3F)c2)cc(=O)[nH]1` (single isomer, unassigned) [Example 58, (R)- or (S)-6-(1-(1-(2-fluoro-4-(trifluoromethoxy)phenyl)ethyl)-1H-pyrazol-4-yl)-2-methylpyrimidin-4(3H)-one], the Ki came out at 256 nM.
Turning to `Cc1nc(-c2ccnn2C(C)c2ccc(C(F)(F)F)cc2)cc(=O)[nH]1` (stereo not shown) [Example 74, 2-methyl-6-(1-(1-(4-(trifluoromethyl)phenyl)ethyl)-1H-pyrazol-5-yl)pyrimidin-4(3H)-one], the Ki is 11000 nM.
The same measure, in the same setting: then `Cc1nc(-c2cnn(C(C)c3ccc(OC(F)(F)F)cc3)c2)cc(=O)[nH]1` (single isomer, unassigned) [Example 128, (S)- or (R)-2-methyl-6-(1-(1-(4-(trifluoromethoxy)phenyl)ethyl)-1H-pyrazol-4-yl)pyrimidin-4(3H)-one], with 588 nM.

Source of the values: patent publication US10287269B2, “Pyrazolyl pyrimidinone compounds as PDE2 inhibitors” (Merck Sharp & Dohme Corp., priority 2015, dated 2019).
